Measured values published in publication PMC6979384, “Characterization of the plant homeodomain (PHD) reader family for their histone tail interactions” (Epigenetics & Chromatin, 2020).
One block for each substance: values may come before it.

Legend:
Test in all cases: Histone peptide microarray
Type in all cases: binding, human
AIRE (PP) = test system: AIRE (PP)
Outline: (§1)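 GST-PHD reader, 0.5 μM, probed on 293-peptide histone array (single/combinatorial PTMs); optimized array protocol; signal = mean ± SD, n = 4.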

BAZ2B = test system: BAZ2B
Outline: as §1

BPTF (PB) = test system: BPTF (PB)
Outline: as §1

CHD4 (PPCC) = test system: CHD4 (PPCC)
Outline: as §1

CHD5 (PCC) = test system: CHD5 (PCC)
Outline: as §1

CHD5 (PPCC) = test system: CHD5 (PPCC)
Outline: as §1

DIDO1 = test system: DIDO1
Outline: as §1

DPF2 (PPC2W2) = test system: DPF2 (PPC2W2)
Outline: as §1

ING1 = test system: ING1
Outline: as §1

ING2 = test system: ING2
Outline: as §1

ING3 = test system: ING3
Outline: as §1

ING4 = test system: ING4
Outline: as §1

ING5 = test system: ING5
Outline: as §1

KDM4C (TTP) = test system: KDM4C (TTP)
Outline: as §1

KDM5A (1) = test system: KDM5A (1)
Outline: as §1

KDM5A (3) = test system: KDM5A (3)
Outline: as §1

KDM5B (1) = test system: KDM5B (1)
Outline: as §1

KDM5B (3) = test system: KDM5B (3)
Outline: as §1

KDM7A = test system: KDM7A
Outline: as §1

MLL5 = test system: MLL5
Outline: as §1

MORC3 (CW) = test system: MORC3 (CW)
Outline: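 Each reader, produced as a GST fusion and purified, was tested at 0.5 μM on synthetic histone peptides (293 in total) carrying single or combinatorial marks. Intensities averaged over four replicates.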

PHF13 = test system: PHF13
Outline: as §1

PHF21A = test system: PHF21A
Outline: as §1

PHF23 = test system: PHF23
Outline: as §1

PHF2 = test system: PHF2
Outline: as §1

PHF8 = test system: PHF8
Outline: as §1

PHRF1 (RP) = test system: PHRF1 (RP)
Outline: as §1

RAG2 = test system: RAG2
Outline: as §1

SP140L = test system: SP140L
Outline: as §1

TAF3 = test system: TAF3
Outline: as §1

TRIM66 (PB) = test system: TRIM66 (PB)
Outline: as §1

[1] = sheet "Array Heatmap", GST-tagged reader, histone peptide array, total n = 4

- Array Heatmap value (peptide array binding signal) (AIRE (PP); AIRE (PP), GST-tagged, arrays performed twice, n of 4): 0.5662
- Array Heatmap value (peptide array binding signal) (BAZ2B; BAZ2B, GST-tagged, arrays performed twice, n of 4): 0.4714
- Array Heatmap value (peptide array binding signal) (BPTF (PB); BPTF (PB), GST-tagged, arrays performed twice, n of 4): 0.3517
- Array Heatmap value (peptide array binding signal) (CHD4 (PPCC); CHD4 (PPCC), GST-tagged, arrays performed twice, n of 4): 0.551
- Array Heatmap value (peptide array binding signal) (CHD5 (PCC); CHD5 (PCC), GST-tagged, arrays performed twice, n of 4): 0.8034
- Array Heatmap value (peptide array binding signal) (CHD5 (PPCC); CHD5 (PPCC), GST-tagged, arrays performed twice, n of 4): 0.5854
- Array Heatmap value (peptide array binding signal) (DIDO1; DIDO1, GST-tagged, arrays performed twice, n of 4): 0.6312
- Array Heatmap value (peptide array binding signal) (DPF2 (PPC2W2); DPF2 (PPC2W2), GST-tagged, arrays performed twice, n of 4): 0.6807
- Array Heatmap value (peptide array binding signal) (ING1; ING1, GST-tagged, arrays performed twice, n of 4): 0.5183
- Array Heatmap value (peptide array binding signal) (ING2; ING2, GST-tagged, arrays performed twice, n of 4): 0.5873
- Array Heatmap value (peptide array binding signal) (ING3; ING3, GST-tagged, arrays performed twice, n of 4): 0.4856
- Array Heatmap value (peptide array binding signal) (ING4; ING4, GST-tagged, arrays performed twice, n of 4): 0.4756
- Array Heatmap value (peptide array binding signal) (ING5; ING5, GST-tagged, arrays performed twice, n of 4): 0.3695
- Array Heatmap value (peptide array binding signal) (KDM4C (TTP); KDM4C (TTP), GST-tagged, arrays performed twice, n of 4): 0.5523
- Array Heatmap value (peptide array binding signal) (KDM5A (1); KDM5A (1), GST-tagged, arrays performed twice, n of 4): 0.4957
- Array Heatmap value (peptide array binding signal) (KDM5A (3); KDM5A (3), GST-tagged, arrays performed twice, n of 4): 0.4472
- Array Heatmap value (peptide array binding signal) (KDM5B (1); KDM5B (1), GST-tagged, arrays performed twice, n of 4): 0.6318
- Array Heatmap value (peptide array binding signal) (KDM5B (3); KDM5B (3), GST-tagged, arrays performed twice, n of 4): 0.5165
- Array Heatmap value (peptide array binding signal) (KDM7A; KDM7A, GST-tagged, arrays performed twice, n of 4): 0.4235
- Array Heatmap value (peptide array binding signal) (MLL5; MLL5, GST-tagged, arrays performed twice, n of 4): 0.528
- Array Heatmap value (peptide array binding signal) (MORC3 (CW); MORC3 (CW), GST-tagged, arrays performed twice, n of 4): 0.3673
- Array Heatmap value (peptide array binding signal) (PHF13; PHF13, GST-tagged, arrays performed twice, n of 4): 0.6182
- Array Heatmap value (peptide array binding signal) (PHF21A; PHF21A, GST-tagged, arrays performed twice, n of 4): 0.4994
- Array Heatmap value (peptide array binding signal) (PHF23; PHF23, GST-tagged, arrays performed twice, n of 4): 0.5198
- Array Heatmap value (peptide array binding signal) (PHF2; PHF2, GST-tagged, arrays performed twice, n of 4): 0.4759
- Array Heatmap value (peptide array binding signal) (PHF8; PHF8, GST-tagged, arrays performed twice, n of 4): 0.3992
- Array Heatmap value (peptide array binding signal) (PHRF1 (RP); PHRF1 (RP), GST-tagged, arrays performed twice, n of 4): 0.424
- Array Heatmap value (peptide array binding signal) (RAG2; RAG2, GST-tagged, arrays performed twice, n of 4): 0.2557
- Array Heatmap value (peptide array binding signal) (SP140L; SP140L, GST-tagged, arrays performed twice, n of 4): 0.3819
- Array Heatmap value (peptide array binding signal) (TAF3; TAF3, GST-tagged, arrays performed twice, n of 4): 0.2841
- Array Heatmap value (peptide array binding signal) (TRIM66 (PB); TRIM66 (PB), GST-tagged, arrays performed twice, n of 4): 0.5724
Substance: H4K5ac + K8ac: H4 1-23

Substance: H3K4ac + K18ac: H3 1-20
- Array Heatmap signal (histone peptide microarray) (AIRE (PP); GST-tagged AIRE (PP), sheet Array Heatmap, each array performed twice, total n = 4): 0.4624
- Array Heatmap signal (histone peptide microarray) (BAZ2B; GST-tagged BAZ2B, sheet Array Heatmap, each array performed twice, total n = 4): 0.4765
- Array Heatmap signal (histone peptide microarray) (BPTF (PB); GST-tagged BPTF (PB = PHD + Bromodomain), sheet Array Heatmap, each array performed twice, total n = 4): 0.3724
- Array Heatmap signal (histone peptide microarray) (CHD4 (PPCC); GST-tagged CHD4 (PPCC = Dual PHD + Dual Chromodomain), sheet Array Heatmap, each array performed twice, total n = 4): 0.5623
- Array Heatmap signal (histone peptide microarray) (CHD5 (PCC); GST-tagged CHD5 (PCC = PHD + Dual Chromodomain), sheet Array Heatmap, each array performed twice, total n = 4): 0.8291
- Array Heatmap signal (histone peptide microarray) (CHD5 (PPCC); GST-tagged CHD5 (PPCC = Dual PHD + Dual Chromodomain), sheet Array Heatmap, each array performed twice, total n = 4): 0.5589
- Array Heatmap signal (histone peptide microarray) (DIDO1; GST-tagged DIDO1, sheet Array Heatmap, each array performed twice, total n = 4): 0.6662
- Array Heatmap signal (histone peptide microarray) (DPF2 (PPC2W2); GST-tagged DPF2 (PPC2W2 = Dual PHD + C2W2-type Zn-finger), sheet Array Heatmap, each array performed twice, total n = 4): 0.6503
- Array Heatmap signal (histone peptide microarray) (ING1; GST-tagged ING1, sheet Array Heatmap, each array performed twice, total n = 4): 0.5001
- Array Heatmap signal (histone peptide microarray) (ING2; GST-tagged ING2, sheet Array Heatmap, each array performed twice, total n = 4): 0.6077
- Array Heatmap signal (histone peptide microarray) (ING3; GST-tagged ING3, sheet Array Heatmap, each array performed twice, total n = 4): 0.5109
- Array Heatmap signal (histone peptide microarray) (ING4; GST-tagged ING4, sheet Array Heatmap, each array performed twice, total n = 4): 0.455
- Array Heatmap signal (histone peptide microarray) (ING5; GST-tagged ING5, sheet Array Heatmap, each array performed twice, total n = 4): 0.347
- Array Heatmap signal (histone peptide microarray) (KDM4C (TTP); GST-tagged KDM4C (TTP = Tandem Tudor domain + PHD), sheet Array Heatmap, each array performed twice, total n = 4): 0.5036
- Array Heatmap signal (histone peptide microarray) (KDM5A (1); GST-tagged KDM5A (1), sheet Array Heatmap, each array performed twice, total n = 4): 0.4894
- Array Heatmap signal (histone peptide microarray) (KDM5A (3); GST-tagged KDM5A (3), sheet Array Heatmap, each array performed twice, total n = 4): 0.4876
- Array Heatmap signal (histone peptide microarray) (KDM5B (1); GST-tagged KDM5B (1), sheet Array Heatmap, each array performed twice, total n = 4): 0.6733
- Array Heatmap signal (histone peptide microarray) (KDM5B (3); GST-tagged KDM5B (3), sheet Array Heatmap, each array performed twice, total n = 4): 0.551
- Array Heatmap signal (histone peptide microarray) (KDM7A; GST-tagged KDM7A, sheet Array Heatmap, each array performed twice, total n = 4): 0.4179
- Array Heatmap signal (histone peptide microarray) (MLL5; GST-tagged MLL5, sheet Array Heatmap, each array performed twice, total n = 4): 0.5346
- Array Heatmap signal (histone peptide microarray) (MORC3 (CW); GST-tagged MORC3 (CW = CW-type Zn-finger), sheet Array Heatmap, each array performed twice, total n = 4): 0.4359
- Array Heatmap signal (histone peptide microarray) (PHF13; GST-tagged PHF13, sheet Array Heatmap, each array performed twice, total n = 4): 0.6219
- Array Heatmap signal (histone peptide microarray) (PHF21A; GST-tagged PHF21A, sheet Array Heatmap, each array performed twice, total n = 4): 0.4736
- Array Heatmap signal (histone peptide microarray) (PHF23; GST-tagged PHF23, sheet Array Heatmap, each array performed twice, total n = 4): 0.5594
- Array Heatmap signal (histone peptide microarray) (PHF2; GST-tagged PHF2, sheet Array Heatmap, each array performed twice, total n = 4): 0.5195
- Array Heatmap signal (histone peptide microarray) (PHF8; GST-tagged PHF8, sheet Array Heatmap, each array performed twice, total n = 4): 0.356
- Array Heatmap signal (histone peptide microarray) (PHRF1 (RP); GST-tagged PHRF1 (RP), sheet Array Heatmap, each array performed twice, total n = 4): 0.5224
- Array Heatmap signal (histone peptide microarray) (RAG2; GST-tagged RAG2, sheet Array Heatmap, each array performed twice, total n = 4): 0.291
- Array Heatmap signal (histone peptide microarray) (SP140L; GST-tagged SP140L, sheet Array Heatmap, each array performed twice, total n = 4): 0.3275
- Array Heatmap signal (histone peptide microarray) (TAF3; GST-tagged TAF3, sheet Array Heatmap, each array performed twice, total n = 4): 0.2831
- Array Heatmap signal (histone peptide microarray) (TRIM66 (PB); GST-tagged TRIM66 (PB = PHD + Bromodomain), sheet Array Heatmap, each array performed twice, total n = 4): 0.6289

Substance: H3K18ac (1-25): H3 1-25
- Array Heatmap signal, AIRE (PP) (AIRE (PP); [1]): 0.502
- Array Heatmap signal, BAZ2B (BAZ2B; [1]): 0.5309
- Array Heatmap signal, BPTF (PB) (BPTF (PB); [1]): 0.4168
- Array Heatmap signal, CHD4 (PPCC) (CHD4 (PPCC); [1]): 0.699
- Array Heatmap signal, CHD5 (PCC) (CHD5 (PCC); [1]): 0.844
- Array Heatmap signal, CHD5 (PPCC) (CHD5 (PPCC); [1]): 0.6616
- Array Heatmap signal, DIDO1 (DIDO1; [1]): 0.8263
- Array Heatmap signal, DPF2 (PPC2W2) (DPF2 (PPC2W2); [1]): 0.8287
- Array Heatmap signal, ING1 (ING1; [1]): 0.6071
- Array Heatmap signal, ING2 (ING2; [1]): 0.65
- Array Heatmap signal, ING3 (ING3; [1]): 0.5765
- Array Heatmap signal, ING4 (ING4; [1]): 0.5434
- Array Heatmap signal, ING5 (ING5; [1]): 0.4305
- Array Heatmap signal, KDM4C (TTP) (KDM4C (TTP); [1]): 0.575
- Array Heatmap signal, KDM5A (1) (KDM5A (1); [1]): 0.5632
- Array Heatmap signal, KDM5A (3) (KDM5A (3); [1]): 0.7204
- Array Heatmap signal, KDM5B (1) (KDM5B (1); [1]): 0.7576
- Array Heatmap signal, KDM5B (3) (KDM5B (3); [1]): 0.5812
- Array Heatmap signal, KDM7A (KDM7A; [1]): 0.4088
- Array Heatmap signal, MLL5 (MLL5; [1]): 0.6155
- Array Heatmap signal, MORC3 (CW) (MORC3 (CW); [1]): 0.6771
- Array Heatmap signal, PHF13 (PHF13; [1]): 0.7117
- Array Heatmap signal, PHF21A (PHF21A; [1]): 0.5491
- Array Heatmap signal, PHF23 (PHF23; [1]): 0.5923
- Array Heatmap signal, PHF2 (PHF2; [1]): 0.6849
- Array Heatmap signal, PHF8 (PHF8; [1]): 0.4195
- Array Heatmap signal, PHRF1 (RP) (PHRF1 (RP); [1]): 0.8108
- Array Heatmap signal, RAG2 (RAG2; [1]): 0.3351
- Array Heatmap signal, SP140L (SP140L; [1]): 0.3993
- Array Heatmap signal, TAF3 (TAF3; [1]): 0.3651
- Array Heatmap signal, TRIM66 (PB) (TRIM66 (PB); [1]): 0.788
